Data set [1] is described as follows: Protective index as the ratio of TD50 value to that of ED50 value in rat. In kind it is functional.
Data set [2] is described as follows: Protective index as the ratio of TD50 value to that of ED50 value in mice. In kind it is functional.
Data set [3] can be described thus: Neurologic toxicity using rotarod test in rat after oral administration. In kind it is organism-based. The following applies: in vivo. (In general: The rotarod test checks motor coordination on a turning rod.)
Data set [4] is described as follows: Neurologic toxicity using rotarod test in mice after intraperitoneal administration. In kind it is organism-based. The following applies: mouse, in vivo, ip.
Another data set has as its system Rattus norvegicus. Kind of data set: Anticonvulsant activity using MES test in rat after oral administration. In kind it is functional.
Another data set has as its system Mus musculus. As to the kind of experiment: (§1) Anticonvulsant activity using MES test in mice after intraperitoneal administration. In kind it is functional. As to conditions: ip.
Data set [5] deals with Metabotropic glutamate receptor 1 (Rattus norvegicus) (UniProt P23385). The description is as §1. In kind it is functional, organism-based. As to conditions: Mus musculus; target entry is the homologue from another species.
Sequence of Metabotropic glutamate receptor 1 (Rattus norvegicus) (P23385 19-1199 limits assumed): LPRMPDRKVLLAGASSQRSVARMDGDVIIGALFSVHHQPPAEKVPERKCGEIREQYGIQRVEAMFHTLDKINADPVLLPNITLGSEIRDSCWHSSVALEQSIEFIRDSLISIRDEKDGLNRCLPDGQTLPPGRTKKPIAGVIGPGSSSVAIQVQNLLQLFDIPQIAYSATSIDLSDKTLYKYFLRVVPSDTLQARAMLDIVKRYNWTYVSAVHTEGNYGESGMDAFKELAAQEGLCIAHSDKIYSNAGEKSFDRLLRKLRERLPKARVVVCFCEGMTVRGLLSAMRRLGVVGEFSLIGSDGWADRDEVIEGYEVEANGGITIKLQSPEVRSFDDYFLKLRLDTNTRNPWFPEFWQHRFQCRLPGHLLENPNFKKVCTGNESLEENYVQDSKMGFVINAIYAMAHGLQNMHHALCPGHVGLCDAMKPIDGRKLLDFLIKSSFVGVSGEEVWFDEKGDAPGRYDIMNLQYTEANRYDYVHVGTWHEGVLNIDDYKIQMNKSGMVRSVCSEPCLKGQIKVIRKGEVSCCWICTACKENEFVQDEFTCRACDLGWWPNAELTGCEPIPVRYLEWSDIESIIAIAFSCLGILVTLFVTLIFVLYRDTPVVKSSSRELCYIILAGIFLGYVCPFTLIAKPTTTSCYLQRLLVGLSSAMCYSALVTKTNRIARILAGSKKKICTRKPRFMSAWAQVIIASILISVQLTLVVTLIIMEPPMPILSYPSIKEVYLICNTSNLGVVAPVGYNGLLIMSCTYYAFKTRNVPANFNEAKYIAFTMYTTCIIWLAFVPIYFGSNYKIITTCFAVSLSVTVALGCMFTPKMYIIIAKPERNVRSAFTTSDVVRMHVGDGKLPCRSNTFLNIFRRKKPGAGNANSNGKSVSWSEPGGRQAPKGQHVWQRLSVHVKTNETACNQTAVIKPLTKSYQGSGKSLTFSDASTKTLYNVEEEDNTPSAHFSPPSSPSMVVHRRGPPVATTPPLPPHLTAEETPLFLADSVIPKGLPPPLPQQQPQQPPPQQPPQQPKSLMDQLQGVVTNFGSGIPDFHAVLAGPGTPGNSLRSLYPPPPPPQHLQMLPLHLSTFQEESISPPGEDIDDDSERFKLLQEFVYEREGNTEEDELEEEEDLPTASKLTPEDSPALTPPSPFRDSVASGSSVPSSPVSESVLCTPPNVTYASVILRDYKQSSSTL

On to `COC[C@@H](NC(C)=O)C(=O)NCc1ccccc1` [LACOSAMIDE], for which the PI is on record as >128 in data set [1] and 6 in data set [2]. In data set [3], the TD50 is > 500 mg/kg.
For `COC[C@@H](NC(C)=O)C(=O)NCc1ccc(N=C=S)cc1`, the PI is on record as >59 in data set [1] and 2 in data set [2]. The TD50 in data set [3] is > 250 mg/kg; in data set [4] it was 47 mg/kg. For the same molecule, the ED50 with Rattus norvegicus was determined as 4.2 mg/kg; in the data set with Mus musculus, 24 mg/kg.
In the case of `CCCC(NC(C)=O)C(=O)NCc1ccccc1` (racemic), the PI is recorded as >30 in data set [1] and 4.2 in data set [2]. For the same molecule, the TD50 was > 30 mg/kg in data set [3] and 160 mg/kg in data set [4]. Also, the ED50 in the data set with Rattus norvegicus turned out to be 30 mg/kg; in the data set with Mus musculus, 38 mg/kg.
Take `CCC1(c2ccccc2)C(=O)NC(=O)NC1=O` [PHENOBARBITAL]: the median effective dose (ED50) in the data set on Rattus norvegicus turned out to be 9.1 mg/kg; in the data set with Mus musculus, 22 mg/kg.
As for `COC[C@H](NC(=O)CBr)C(=O)NCc1ccccc1`, the TD50 in data set [4] is > 30 mg/kg. In addition, the 50% effective dose (ED50) in the data set on Mus musculus is > 30 mg/kg.
Turning to `CCCC(CCC)C(=O)O` [VALPROIC ACID], the ED50 with Mus musculus turned out to be 270 mg/kg.
With `COC[C@H](NC(C)=O)C(=O)NCc1ccccc1`, the TD50 in data set [3] was > 30 mg/kg; in data set [4], > 300 mg/kg. Moreover, the ED50 in the data set with Rattus norvegicus was > 30 mg/kg.
With `COC[C@H](NC(C)=O)C(=O)NCc1ccc(N=C=S)cc1`, the TD50 in data set [3] and in data set [4] was > 30 mg/kg throughout. The ED50 was > 180 mg/kg in the data set with Rattus norvegicus and > 100 mg/kg with Mus musculus.
`COCC(NC(C)=O)C(=O)NCc1ccccc1` (racemic): the results for the PI in data set [1] and in data set [2] were 101 and 5.2, respectively. Further, the TD50 in data set [3] stood at 37 mg/kg.
With `COC[C@@H](NC(=O)CBr)C(=O)NCc1ccccc1`, in data set [4], the TD50 is > 30 mg/kg. For the same molecule, in the data set with Mus musculus, the 50% effective dose (ED50) is > 300 mg/kg.
Consider `CCOCC(NC(C)=O)C(=O)NCc1ccccc1` (racemic), for which, in the data set with Mus musculus, the ED50 stood at 17 mg/kg.
For the molecule `COC[C@@H](NC(C)=O)C(=O)NCc1cccc(N=C=S)c1`, the PI was >9 in data set [1] and 1.6 in data set [2]. In addition, the ED50 turned out to be 74 mg/kg in data set [5] and 28 mg/kg with Rattus norvegicus. The TD50 in data set [3] is > 250 mg/kg; in data set [4], 120 mg/kg.
For the molecule `CC(=O)NC(CCCCN=C=S)C(=O)NCc1ccccc1` (racemic), the TD50 in data set [3] and in data set [4] was > 30 mg/kg throughout. For the same molecule, the ED50 in the data set on Rattus norvegicus and in the data set on Mus musculus was > 30 mg/kg in each case.
For the molecule `COC[C@H](NC(C)=O)C(=O)NCc1cccc(N=C=S)c1`, the TD50 in data set [3] is > 150 mg/kg; in data set [4], > 100 mg/kg. Moreover, the ED50 is > 150 mg/kg in the data set on Rattus norvegicus and > 100 mg/kg with Mus musculus.
With `O=C1NC(=O)C(c2ccccc2)(c2ccccc2)N1` [PHENYTOIN], the ED50 with Rattus norvegicus was determined as 30 mg/kg.
Regarding `C=CC(=O)NC(COC)C(=O)NCc1ccccc1` (racemic), the TD50 was > 30 mg/kg in data set [3] and > 300 mg/kg in data set [4]. Also, the results for the ED50 with Rattus norvegicus and in the data set on Mus musculus were > 30 mg/kg and > 100 mg/kg, respectively.

Usually TD50 stands for the dose at which the toxic effect under study appears in half of the subjects. Lower therefore signals harm at a small dose. The ED50 is the dose at which the effect has come halfway, by size or by number of responders. A high value points to a need for a large dose.

The values above are taken from ChEMBL document CHEMBL1135631, “Design and evaluation of affinity labels of functionalized amino acid anticonvulsants” (J Med Chem, 2002).
